Laboratory results: BindingDB's records for doi:10.1021/np100918z (National Cancer Institute-Frederick, 2011)

These compounds were tested against T1, Programmed cell death protein 4 (Homo sapiens, UniProt Q53EL6) (assay: Inhibition of TPA-induced degradation of Pdcd4 (amino acid 39-91) expressed in human HEK293 cells assessed as minimum compound concentration required for 50% recovery of Pdcd4-luciferase signal incubated for 8 hrs by luciferase reporter gene assay).
T1 sequence (Q53EL6 whole entry): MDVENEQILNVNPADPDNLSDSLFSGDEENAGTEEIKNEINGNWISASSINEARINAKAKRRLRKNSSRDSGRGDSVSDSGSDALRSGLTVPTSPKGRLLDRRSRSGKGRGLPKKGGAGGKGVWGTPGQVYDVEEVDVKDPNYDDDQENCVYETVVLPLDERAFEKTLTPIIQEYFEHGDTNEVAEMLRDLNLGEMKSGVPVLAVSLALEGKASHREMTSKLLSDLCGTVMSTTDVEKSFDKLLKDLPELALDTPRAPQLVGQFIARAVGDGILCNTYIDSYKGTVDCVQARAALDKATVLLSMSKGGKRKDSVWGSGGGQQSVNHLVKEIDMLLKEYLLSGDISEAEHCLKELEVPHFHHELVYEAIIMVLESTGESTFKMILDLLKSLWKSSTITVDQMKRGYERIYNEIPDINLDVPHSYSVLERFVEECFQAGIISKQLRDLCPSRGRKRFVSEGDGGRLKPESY

Row | Structure (SMILES) | EC50 [nM]
1 | CCCCCCCCCCCCCCC[C@@H](O)C[C@H](O)C[C@H](O)C[C@H](O)C[C@H](O)C[C@H]1CC=CC(=O)O1 [Cryptocaryol A] | 4900
2 | CCCCCCCCCCCCCCC[C@H](C[C@H](O)C[C@H](O)C[C@H](O)C[C@H](O)C[C@H]1CC=CC(=O)O1)OC(C)=O [Cryptocaryol B] | 3000
3 | CCCCCCCCCCCCCCC[C@@H](O)C[C@H](O)C[C@H](O)C[C@H](O)C[C@H](O)C[C@@H]1OC(=O)C=C[C@@H]1O [Cryptocaryol C] | 1600
4 | CCCCCCCCCCCCCCC[C@H](C[C@H](O)C[C@H](O)C[C@H](O)C[C@H](O)C[C@@H]1OC(=O)C=C[C@@H]1O)OC(C)=O [Cryptocaryol D] | 1500
5 | CCCCCCCCCCCCCCC[C@@H](O)C[C@H](O)C[C@H](O)C[C@H](O)C[C@@H]1OC(=O)C=C[C@@H]1O [Cryptocaryol E] | 1800
6 | CO[C@H]1C[C@@H]2CC[C@@H](C)[C@@](O)(O2)C(=O)C(=O)N2CCCC[C@H]2C(=O)O[C@H]([C@H](C)C[C@@H]2CC[C@@H](O)[C@H](OC)C2)CC(=O)[C@H](C)/C=C(\C)[C@@H](O)[C@@H](OC)C(=O)[C@H](C)C[C@H](C)/C=C/C=C/C=C/1C [Rapamycin C-7, analog 4] | 50
